In test [1] the test system is Human Aortic Vascular SMC cell line. The test can be described thus: SMC growth inhibition after drug exposure, MTT assay and Neutral Red assay. It counts as cell-based. As to conditions: high doses; analysed after 72 hours. The procedure:
The Human Aortic Vascular SMC cell line was investigated. 96 well plates were seeded and were incubated for at least one day. Medium from the plate was removed and replaced with medium containing varying concentrations of drugs, the drugs being dex, aspirin, GTN or a combination of these drugs. The effects of the drugs were analysed after 72 hours with two viability assays: MTT assay and Neutral Red assay. Absorbance values were read from a microplate reader. MTT is a yellow tetrazolium salt taken up into cells. In viable cells, the salt was reduced in cytosol or mitochondria to form blue formazan salt. The formazan product was very insoluble and was disolved in dimethylsulphoxide before its absorbance was calculated. In non-viable cells, there was no reaction and the cells remained yellow. The Neutral Red assay involved adding neutral red solution, a red dye to cells. In viable cells, the dye stained lysosomes. The cells were incubated with neutral red solution for three hours (to enable dye to penetrate cells), a neutral red destain solution was then added to remove the dye. The intensity of the red colour equated to the number of viable cells.
In general terms: Tetrazolium assays rely on reduction of a dye to a coloured formazan, in cell work by metabolically active cells.

For test [2], the system named is HA-VSCMs. The test can be described thus: HA-VSMC culture on silicone based film membranes, viability staining viewed under CLSM. The format is cell-based, Human. The note with it: GTN coated FISi membrane vs FISi only film membranes. The procedure:
HA-VSCMs were cultured on silicone based film membranes supplied by Vascutek. 2 membrane types were tested: uncoated FISi membrane and FISi membrane coated with GTN. Cells were seeded at 5×10^3 seeding density. Cells were cultured for a week and the medium was changed every two days. […] This problem was overcome by sticking the coverslips to the plate with double sided tape before the wells were seeded. Furthermore the cells were washed off during staining or the cells were saved for too long. Some cells were saved by introducing a gentle washing step. On the seventh day, the coverslips were stained and viewed under the CLSM for viability studies.
The following were used as viability stains; CFDA (carboxyfluorescein diacetate) is a vital stain that penetrates cell membranes. Viable cells contain esterase enzymes that remove the diacetate from the molecule thus forming CF which is fluorescent. Once CF if formed, it accumulates in the membrane and viable cells with fluoresce bright green.
Ethidium Bromide: is a vital dye that is only able to pass through the compromised membrane of dead cells and stain them red.
Acridine Orange: is a dye which intercalates with DNA and RNA by intercalation or electrostatic attraction.

In the case of `CC(=O)Oc1ccccc1C(=O)O` [aspirin, acetylsalicylic acid], the “role in the treatment of vascular proliferative disorder (SMC growth inhibition)” value in test [1] is “appear to have a beneficial role”.

For the molecule `O=[N+]([O-])OCC(CO[N+](=O)[O-])O[N+](=O)[O-]` [GTN, Glyceryl Trinitrate], the “cell growth compared to FISi only film membranes” value in test [2] is on record as “does not significantly decrease cell growth”.

These data come from patent publication US20040115237A1, “Biocompatible composite” (priority 2001, published 2004).
